For 29 compounds, IC50 results are on record in patent US8420675B2, “Aminotetrahydroindazoloacetic acids” (Hoffmann-La Roche Inc., priority 2008, dated 2013).

The structures appear in SMILES notation.

This assay has as its target T1, human CRTH2 (Homo sapiens, UniProt Q9Y5Y4).
T1 construct: expressed in transfected cells
T1 sequence (Q9Y5Y4 1-395): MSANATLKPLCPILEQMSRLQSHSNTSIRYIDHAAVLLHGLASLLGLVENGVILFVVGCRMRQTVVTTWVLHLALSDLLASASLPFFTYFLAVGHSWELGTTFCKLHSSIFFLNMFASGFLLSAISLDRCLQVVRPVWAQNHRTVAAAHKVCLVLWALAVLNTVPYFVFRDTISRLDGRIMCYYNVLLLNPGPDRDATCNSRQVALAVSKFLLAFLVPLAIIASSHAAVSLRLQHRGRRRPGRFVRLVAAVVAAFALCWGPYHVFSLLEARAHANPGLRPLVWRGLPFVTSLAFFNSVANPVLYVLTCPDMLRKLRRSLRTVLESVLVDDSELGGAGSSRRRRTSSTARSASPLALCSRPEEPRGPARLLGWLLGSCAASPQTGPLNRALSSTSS
The assay can be described thus: Human CRTH2 Receptor Binding Assay (whole cell, [3H]ramatroban competition). Conditions: CHO-K1 cells expressing human CRTH2 and G-alpha16; 20 nM [3H]ramatroban; 1 hour, room temperature. Summed up: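 CHO-K1 cells stably co-expressing human CRTH2 and G-alpha16, 1.5×10^5 per reaction, incubated 1 hour at room temperature with 20 nM [3H]ramatroban in PBS containing 10 mM MgCl2 and 0.06% BSA. Non-specific binding defined with 10 μM 15(R)-15-methyl PGD2. IC50 from 7 concentrations by 4-parameter logistic fit of specific binding inhibition.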
For `CN([C@@H]1CCCc2c1cnn2CC(=O)O)S(=O)(=O)c1ccc(Oc2ccc(S(C)(=O)=O)cc2)c(Cl)c1` [Example 9-25a, ((R)-4-{[3-Chloro-4-(4-methanesulfonyl-phenoxy)-benzenesulfonyl]-methyl-amino}-4,5,6,7-tetrahydro-indazol-1-yl)-acetic acid], the IC50 came out at 20.9 nM.

In turn, `Cc1ccccc1Oc1ccc(S(=O)(=O)N(C)[C@@H]2CCCc3c2cnn3CC(=O)O)cc1Cl` [Example 9-26a, {(R)-4-[(3-Chloro-4-o-tolyloxy-benzenesulfonyl)-methyl-amino]-4,5,6,7-tetrahydro-indazol-1-yl}-acetic acid] yielded a half-maximal inhibitory concentration (IC50) of 23.7 nM.

`CC(=O)Nc1ccc(Oc2ccc(S(=O)(=O)N(C)[C@@H]3CCCc4c3cnn4CC(=O)O)cc2Cl)cc1` [Example 9-27a, ((R)-4-{[4-(4-Acetylamino-phenoxy)-3-chloro-benzenesulfonyl]-methyl-amino}-4,5,6,7-tetrahydro-indazol-1-yl)-acetic acid]: the IC50 worked out at 49.1 nM.

As for `CN([C@@H]1CCCc2c1cnn2CC(=O)O)S(=O)(=O)c1ccc(Oc2ccc(OC(F)(F)F)cc2)c(Cl)c1` [Example 9-28a, ((R)-4-{[3-Chloro-4-(4-trifluoromethoxy-phenoxy)-benzenesulfonyl]-methyl-amino}-4,5,6,7-tetrahydro-indazol-1-yl)-acetic acid], the 50% inhibitory concentration (IC50) amounted to 11.8 nM.

Compound `CN([C@@H]1CCCc2c1cnn2CC(=O)O)S(=O)(=O)c1cc(F)c(Oc2ccc(F)cc2)cc1Cl` [Example 9-29a, ((R)-4-{[2-Chloro-5-fluoro-4-(4-fluoro-phenoxy)-benzenesulfonyl]-methyl-amino}-4,5,6,7-tetrahydro-indazol-1-yl)-acetic acid] had an IC50 of 151 nM.

`CN([C@@H]1CCCc2c1cnn2CC(=O)O)S(=O)(=O)c1cc(Cl)c(Oc2ccc(F)cc2)cc1F` [Example 9-30a, ((R)-4-{[5-Chloro-2-fluoro-4-(4-fluoro-phenoxy)-benzenesulfonyl]-methyl-amino}-4,5,6,7-tetrahydro-indazol-1-yl)-acetic acid]: the IC50 turned out to be 37.7 nM.

`COc1ccc(Oc2ccc(S(=O)(=O)N(C)[C@@H]3CCCc4c3cnn4CC(=O)O)cc2Cl)cc1` [Example 9-31a, ((R)-4-{[3-Chloro-4-(4-methoxy-phenoxy)-benzenesulfonyl]-methyl-amino}-4,5,6,7-tetrahydro-indazol-1-yl)-acetic acid] displayed an IC50 of 6.8 nM.

As for `CN([C@@H]1CCCc2c1cnn2CC(=O)O)S(=O)(=O)c1ccc(Oc2ccc(F)cc2F)c(Cl)c1` [Example 9-32a, ((R)-4-{[3-Chloro-4-(2,4-difluoro-phenoxy)-benzenesulfonyl]-methyl-amino}-4,5,6,7-tetrahydro-indazol-1-yl)-acetic acid], the IC50 was 7.6 nM.

The compound `CN([C@@H]1CCCc2c1cnn2CC(=O)O)S(=O)(=O)c1ccc(Oc2c(F)cccc2F)c(Cl)c1` [Example 9-33a, ((R)-4-{[3-Chloro-4-(2,6-difluoro-phenoxy)-benzenesulfonyl]-methyl-amino}-4,5,6,7-tetrahydro-indazol-1-yl)-acetic acid] had an IC50 of 10.6 nM.

Take `CN([C@@H]1CCCc2c1cnn2CC(=O)O)S(=O)(=O)c1ccc(Oc2ccc(C#N)cc2)c(Cl)c1` [Example 9-34a, ((R)-4-{[3-Chloro-4-(4-cyano-phenoxy)-benzenesulfonyl]-methyl-amino}-4,5,6,7-tetrahydro-indazol-1-yl)-acetic acid]: the half-maximal inhibitory concentration (IC50) is 4.6 nM.

Compound `Cc1cc(S(=O)(=O)N(C)[C@@H]2CCCc3c2cnn3CC(=O)O)ccc1Oc1ccc(F)cc1` [Example 9-35a, ((R)-4-{[4-(4-Fluoro-phenoxy)-3-methyl-benzenesulfonyl]-methyl-amino}-4,5,6,7-tetrahydro-indazol-1-yl)-acetic acid] showed an IC50 of 17.1 nM.

`CN([C@@H]1CCCc2c1cnn2CC(=O)O)S(=O)(=O)c1ccc(Oc2ccc(C(N)=O)cc2)c(Cl)c1` [Example 9-36a, ((R)-4-{[4-(4-Carbamoyl-phenoxy)-3-chloro-benzenesulfonyl]-methyl-amino}-4,5,6,7-tetrahydro-indazol-1-yl)-acetic acid] came in with an IC50 of 23.1 nM.

In turn, `CN([C@@H]1CCCc2c1cnn2CC(=O)O)S(=O)(=O)c1ccc(Oc2ccccc2F)c(Cl)c1` [Example 9-37a, ((R)-4-{[3-Chloro-4-(2-fluoro-phenoxy)-benzenesulfonyl]-methyl-amino}-4,5,6,7-tetrahydro-indazol-1-yl)-acetic acid] showed an IC50 of 14.8 nM.

Take `Cc1cc(F)ccc1Oc1ccc(S(=O)(=O)N(C)[C@@H]2CCCc3c2cnn3CC(=O)O)cc1Cl` [Example 9-38a, ((R)-4-{[3-Chloro-4-(4-fluoro-2-methyl-phenoxy)-benzenesulfonyl]-methyl-amino}-4,5,6,7-tetrahydro-indazol-1-yl)-acetic acid]: the IC50 amounted to 8 nM.

Regarding `CN([C@@H]1CCCc2c1cnn2CC(=O)O)S(=O)(=O)c1cc(F)c(Oc2ccc(F)cc2)c(F)c1` [Example 9-39a, ((R)-4-{[3,5-Difluoro-4-(4-fluoro-phenoxy)-benzenesulfonyl]-methyl-amino}-4,5,6,7-tetrahydro-indazol-1-yl)-acetic acid], the half-maximal inhibitory concentration (IC50) is 10.4 nM.

`CN([C@@H]1CCCc2c1cnn2CC(=O)O)S(=O)(=O)c1ccc(Oc2ccc(F)cc2)c(Br)c1` [Example 9-40a, ((R)-4-{[3-Bromo-4-(4-fluoro-phenoxy)-benzenesulfonyl]-methyl-amino}-4,5,6,7-tetrahydro-indazol-1-yl)-acetic acid] gave an IC50 of 7.9 nM.

`CN([C@@H]1CCCc2c1cnn2CC(=O)O)S(=O)(=O)c1ccc(Oc2ccc(F)cc2)c(C(F)(F)F)c1` [Example 9-41a, ((R)-4-{[4-(4-Fluoro-phenoxy)-3-trifluoromethyl-benzenesulfonyl]-methyl-amino}-4,5,6,7-tetrahydro-indazol-1-yl)-acetic acid] showed an IC50 of 7.5 nM.

For `CN([C@@H]1CCCc2c1cnn2CC(=O)O)S(=O)(=O)c1cc(Oc2ccc(F)cc2)cc(C(F)(F)F)c1` [Example 9-42a, ((R)-4-{[3-(4-Fluoro-phenoxy)-5-trifluoromethyl-benzenesulfonyl]-methyl-amino}-4,5,6,7-tetrahydro-indazol-1-yl)-acetic acid], the half-inhibitory concentration (IC50) amounted to 22.6 nM.

`COc1ccc(-c2ccc(S(=O)(=O)NC3CCCc4c3cnn4CC(=O)O)cc2)cc1` (centres unmarked) [Example 10-1a, [4-(4′-Methoxy-biphenyl-4-sulfonylamino)-4,5,6,7-tetrahydro-indazol-1-yl]-acetic acid] returned a half-maximal inhibitory concentration (IC50) of 215 nM.

For the compound `O=C(O)Cn1ncc2c1CCCC2NS(=O)(=O)c1ccc(-c2cccnc2)cc1` (centres unmarked) [Example 10-2a, [4-(4-Pyridin-3-yl-benzenesulfonylamino)-4,5,6,7-tetrahydro-indazol-1-yl]-acetic acid], the IC50 was 371 nM.

Regarding `CCOc1ccc(-c2ccc(S(=O)(=O)NC3CCCc4c3cnn4CC(=O)O)cc2)cc1` (centres unmarked) [Example 10-3a, [4-(4′-Ethoxy-biphenyl-4-sulfonylamino)-4,5,6,7-tetrahydro-indazol-1-yl]-acetic acid], the concentration for half-maximal inhibition (IC50) is 194 nM.

Consider `O=C(O)Cn1ncc2c1CCCC2NS(=O)(=O)c1ccc(-c2ccccc2Cl)cc1` (centres unmarked) [Example 10-4a, [4-(2′-Chloro-biphenyl-4-sulfonylamino)-4,5,6,7-tetrahydro-indazol-1-yl]-acetic acid], for which the concentration for half-maximal inhibition (IC50) was 257 nM.

`COc1ccc(-c2cccc(S(=O)(=O)NC3CCCc4c3cnn4CC(=O)O)c2)cc1` (centres unmarked) [Example 10-5a, [4-(4′-Methoxy-biphenyl-3-sulfonylamino)-4,5,6,7-tetrahydro-indazol-1-yl]-acetic acid] gave an IC50 of 369 nM.

In turn, `O=C(O)Cn1ncc2c1CCCC2NS(=O)(=O)c1ccc(-c2ccc(Cl)cc2)cc1` (centres unmarked) [Example 10-6a, [4-(4′-Chloro-biphenyl-4-sulfonylamino)-4,5,6,7-tetrahydro-indazol-1-yl]-acetic acid] came in with a 50% inhibitory concentration (IC50) of 207 nM.

In turn, `O=C(O)Cn1ncc2c1CCCC2NS(=O)(=O)c1ccc(-c2ccc(F)cc2)cc1` (centres unmarked) [Example 10-7a, [4-(4′-Fluoro-biphenyl-4-sulfonylamino)-4,5,6,7-tetrahydro-indazol-1-yl]-acetic acid] registered an IC50 of 300 nM.

As to `O=C(O)Cn1ncc2c1CCCC2NS(=O)(=O)c1ccc(-c2ccccc2)c(F)c1` (centres unmarked) [Example 10-8a, [4-(2-Fluoro-biphenyl-4-sulfonylamino)-4,5,6,7-tetrahydro-indazol-1-yl]-acetic acid], the half-maximal inhibitory concentration (IC50) worked out at 412 nM.

`O=C(O)Cn1ncc2c1CCCC2NS(=O)(=O)c1ccc(-c2ccccc2)c(C(F)(F)F)c1` (centres unmarked) [Example 10-9a, [4-(2-Trifluoromethyl-biphenyl-4-sulfonylamino)-4,5,6,7-tetrahydro-indazol-1-yl]-acetic acid]: the IC50 was determined as 71.6 nM.

`COc1cccc(-c2ccc(S(=O)(=O)NC3CCCc4c3cnn4CC(=O)O)cc2)c1` (centres unmarked) [Example 10-10a, [4-(3′-Methoxy-biphenyl-4-sulfonylamino)-4,5,6,7-tetrahydro-indazol-1-yl]-acetic acid] showed an IC50 of 370 nM.

The compound `N#Cc1cccc(-c2ccc(S(=O)(=O)NC3CCCc4c3cnn4CC(=O)O)cc2)c1` (centres unmarked) [Example 10-11a, [4-(3′-Cyano-biphenyl-4-sulfonylamino)-4,5,6,7-tetrahydro-indazol-1-yl]-acetic acid] displayed a half-maximal inhibitory concentration (IC50) of 321 nM.
